Where two headings read alike, the source gives them in different places.
What was measured:
[1] = target: T1, PAO in bovine plasma (Bos taurus, UniProt Q29437); test: Conversion of amine substrates by bovine plasma (HPLC-UV); type: biochemical; conditions: substrate 250 µM, 6 µL bovine plasma in final volume 100 µL; mean ± SD, n = 3
T1 construct: crude bovine plasma can be used as enzyme source in this assay instead of the purified enzyme; tissue Coesfelder Fleischhandelsgesellschaft, Bernd Grewe (Coesfeld, Germany); host or cells: heparinised bovine blood plasma
T1 sequence (Q29437 17-762): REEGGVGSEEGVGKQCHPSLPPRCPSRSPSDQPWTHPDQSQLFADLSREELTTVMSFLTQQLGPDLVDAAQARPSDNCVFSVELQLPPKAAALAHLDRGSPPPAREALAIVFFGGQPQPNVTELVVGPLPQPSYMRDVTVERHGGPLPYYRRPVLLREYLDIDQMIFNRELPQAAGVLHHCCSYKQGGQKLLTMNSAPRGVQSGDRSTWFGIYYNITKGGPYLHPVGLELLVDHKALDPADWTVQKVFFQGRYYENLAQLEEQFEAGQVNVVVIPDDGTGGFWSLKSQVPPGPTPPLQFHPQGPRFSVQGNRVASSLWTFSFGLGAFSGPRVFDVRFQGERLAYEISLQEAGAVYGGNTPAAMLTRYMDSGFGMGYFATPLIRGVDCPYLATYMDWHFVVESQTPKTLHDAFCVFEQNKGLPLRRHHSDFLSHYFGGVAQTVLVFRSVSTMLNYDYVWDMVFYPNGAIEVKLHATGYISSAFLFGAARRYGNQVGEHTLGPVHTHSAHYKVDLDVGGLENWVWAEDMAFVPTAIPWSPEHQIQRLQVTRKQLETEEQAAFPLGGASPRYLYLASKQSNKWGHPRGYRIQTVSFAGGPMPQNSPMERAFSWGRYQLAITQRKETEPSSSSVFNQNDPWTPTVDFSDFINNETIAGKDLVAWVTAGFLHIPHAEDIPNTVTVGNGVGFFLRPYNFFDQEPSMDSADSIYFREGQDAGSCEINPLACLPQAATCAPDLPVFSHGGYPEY
Protocol: Determination of the conversion rates of different amine substrates by bovine plasma. The conversion rates of the amine substrates 1–7 to the corresponding aldehydes 8–14 by bovine plasma was measured as described previously, with the modification that the solution of the isolated PAO in PBS (0.19 mg/mL) (95 µL) was replaced by PBS (89 µL) and bovine plasma (6 µL).

[2] = target: T2, purified bovine PAO (Bos taurus, UniProt Q29437); design: method as in PMID 27129976, PMID 29550344; conditions: substrate 250 µM, 18 µg purified PAO in final volume 100 µL; mean ± SD, n = 3; cited from earlier work
T2 construct: bovine PAO purified from bovine plasma; purchased Abnova, Taipei, Taiwan delivered via Biozol, Eching, Germany; host or cells: bovine plasma
T2 sequence (Q29437 17-762): T1 sequence (Q29437 17-762)

[3] = target: T1, PAO in bovine plasma; test: Inhibitor screening with pre-incubation of bovine plasma with the inhibitor (HPLC-UV); type: biochemical; conditions: for block of substrate transformation, bovine plasma: 10 µM, pre-incubation conditions; for IC50: with pre-incubation of enzyme and inhibitor (15 min, 37 °C), n = 3
Protocol: General procedure for inhibitor screening with pre-incubation of bovine plasma with the inhibitor. To a DMSO solution of the appropriate inhibitor (concentration variable) (2.5 µL) was added a dilution of bovine plasma in PBS (95 µL), prepared by mixing 89 volume parts of PBS with 6 volume parts of bovine plasma. The resulting mixture was pre-incubated at 37 °C for 15 min. Then the incubation was started at 37 °C by addition of a solution of the substrate 4 (10 mM) in DMSO (2.5 µL). After 45 min, the enzyme reaction was terminated by the addition of acetonitrile (100 µL). The samples were further treated and analysed as described above in the inhibition experiments done without pre-incubation. Controls (n = 3) and a blank were prepared analogously. The experiments using benzylamine (7) as substrate were carried out in the same way with the modifications that aliquots (150 µL) of the supernatants obtained after addition of acetonitrile and centrifugation were diluted with water (150 µL), and acetonitrile/aqueous ammonium acetate solution (10 mM, pH 6) (45:55, v/v) was used as eluent at a detection wavelength of 250 nm.

[4] = target: T3, purified PAO (Bos taurus, UniProt Q29437); test: Inhibition of purified PAO after pre-incubation of enzyme with inhibitor; type: biochemical, bovine; conditions: 10 µM; pre-incubation conditions
T3 construct: we used the enzyme isolated and purified from bovine plasma; host or cells: bovine plasma
T3 sequence (Q29437 17-762): T1 sequence (Q29437 17-762)
Excerpt: 2-(4-Phenylphenyl)acetohydrazide (16) is known to inhibit PAO by forming covalent bonds with the cofactor topaquinone.
Finally, we wanted to confirm that the amine oxidases MAO A, MAO B, and DAO are not involved in substrate conversion by bovine plasma using specific inhibitorsof these enzymes.

[5] = target: T1, PAO in bovine plasma; test: Inhibitor screening without pre-incubation of bovine plasma with the inhibitor (HPLC-UV); type: biochemical; conditions: n = 3
Protocol: Determination of the IC50-values of the PAO inhibitor 2-(4-phenylphenyl)acetohydrazide (16) with bovine plasma using different substrates.
General procedure for inhibitor screening without pre-incubation of bovine plasma with the inhibitor. A mixture of a DMSO solution of 4 (10 mM) (2.5 µL), a DMSO solution of the appropriate inhibitor (concentration variable) (2.5 µL) and PBS buffer (pH 7.4) (89 µL) was treated with bovine plasma (6 µL). After incubation at 37 °C for 45 min, the enzyme reaction was terminated by the addition of acetonitrile (100 µL). The sample was cooled in an ice bath for 10 min and centrifuged at 12,000 × g and 10 °C for 5 min. An aliquot of the supernatant (150 µL) was diluted with aqueous TRIS buffer (100 mM, pH 8.5 at 20 °C) (150 µL), allowed to stand at room temperature for 30 min, and analysed by HPLC. The HPLC–UV-system consisted of a Thermo Scientific Dionex UltiMate 3000 system including an autosampler and a variable wavelength detector (ThermoFisher Scientific, Germering, Germany). Separation was achieved on a Luna 3 u C8(2) analytical column (3 mm inside diameter× 150 mm, particle size 3 µm) (Phenomenex, Aschaffenburg, Germany) protected with a Phenomenex Phenyl guard column (3 mm inside diameter ×4 mm). The injection volume was 50 µL. Temperature of the autosampler was set to 10 °C, the temperature of the column oven was 20 °C. HPLC analysis was run isocratically using acetonitrile/aqueous TRIS buffer (50 mM, pH 8.5 at 20 °C) (35:65, v/v) as eluent at a flow rate of 0.4 mL/min. […] Controls with DMSO (2.5 µL) instead of a DMSO solution of the inhibitor (2.5 µL) were prepared in the same manner in parallel (n = 3). Furthermore, a blank incubation, in which the enzyme solution was replaced by the buffer used for dissolving the enzyme, was carried out. The relative inhibition values were determined at different inhibitor concentrations and calculated as the ratio of the areas of the 1,3-oxazolidine 15 peaks formed in presence and absence of the test compounds (corrected by the blank value). […] The experiments using benzylamine (7) as substrate were carried out in the same way with the modifications that aliquots (150 µL) of the supernatants obtained after addition of acetonitrile and centrifugation were diluted with water (150 µL) and acetonitrile/aqueous ammonium acetate solution (10 mM, pH 6) (45:55, v/v) was used as eluent at a detection wavelength of 250 nm.

[6] = target: T2, purified bovine PAO; test: Inhibition of purified bovine PAO without pre-incubation (HPLC-UV); type: biochemical; conditions: substrate 3-(5-phenyl-2H-tetrazol-2-yl)propan-1-amine (1), n = 3
Protocol: Determination of the IC50-values of the PAO inhibitor 2-(4-phenylphenyl)acetohydrazide (16) with bovine plasma using different substrates. The IC50-values were measured as described previously (without pre-incubation),[33] with the modification that the solution of the isolated PAO in PBS (0.19 mg/mL) (95 µL) was replaced by PBS (89 µL) and bovine plasma (6 µL).
To evaluate the comparability of inhibition data obtained with the purified enzyme and the crude plasma, we measured the inhibition values of the known PAO inhibitor 2-(4-phenylphenyl)acetohydrazide (16) (for formula see Table 3) using the different amine substrates 1–7. In these experiments, the enzyme was added to a solution containing both substrate and inhibitor. Thus, no pre-incubation of enzyme with the inhibitor took place. […] This may be due to the binding of the inhibitor to plasma proteins leading to a somewhat reduced effective concentration. In addition, consistent differences in the apparent inhibitory potency of the inhibitor 16 in dependence of the substrate applied could be registered for both enzyme preparations. The reason for these fluctuating values lies in strongly different binding affinities of the substrates to the enzyme as discussed recently. […]

[7] = target: T2, purified bovine PAO; design: method as in PMID 27129976; conditions: without pre-incubation, n = 3, cited from earlier work
[8] = target: T3, purified PAO; design: method as in PMID 29550344; conditions: after pre-incubation 15 min, read-out: IC50, purified enzyme, cited from earlier work
[9] = system: MAO A; design: method as in PMID 29550344; conditions: 0.1 µM; pre-incubation conditions; cited from earlier work
[10] = system: DAO; design: method as in PMID 29550344; conditions: 10 µM; pre-incubation conditions; cited from earlier work
[11] = substrate benzylamine (7), without pre-incubation of enzyme and inhibitor
[12] = substrate hexan-1-amine 4, without pre-incubation of enzyme and inhibitor

NCCCCCCn1nnc(-c2ccccc2)n1 [Compound 4, 6-(5-Phenyl-2H-tetrazol-2-yl)hexan-1-amine]
Conversion of substrate, Bovine plasma [1]: 51 ± 1.5% | Conversion of substrate, Purified PAO [2]: 57 ± 1.4%

NCc1ccccc1 [Compound 7, Benzylamine]
Conversion of substrate, Bovine plasma [1]: 30 ± 2.0% | Conversion of substrate, Purified PAO [2]: 20 ± 2.1%

C#CCN(C)[C@H](C)Cc1ccccc1 [selegiline]
block of substrate transformation, bovine plasma [3]: neither of these compounds blocked the substrate transformation | block of substrate transformation, purified PAO [4]: neither of these compounds blocked the substrate transformation

NCCCn1nnc(-c2ccccc2)n1 [Compound 1, 3-(5-Phenyl-2H-tetrazol-2-yl)propan-1-amine]
Conversion of substrate, Bovine plasma [1]: 5 ± 0.8% | Conversion of substrate, Purified PAO [2]: 12 ± 0.8%

NNC(=O)Cc1cccc(-c2ccccc2)c1 [Compound 18, 2-(3-Phenylphenyl)acetohydrazide]
IC50 [5, 11]: 620 ± 50 nM | IC50 [5, 12]: 20000 ± 1000 nM | IC50 ([3]; substrate benzylamine): 240 ± 30 nM | IC50 ([3]; substrate hexan-1-amine 4): 380 ± 20 nM

NNC(=O)Cc1ccc(-c2ccccc2)cc1 [Compound 16, 2-(4-phenylphenyl)acetohydrazide]
IC50 [6]: 53000 ± 3000 nM | IC50 ([5]; substrate 4-(5-phenyl-2H-tetrazol-2-yl)butan-1-amine (2), without pre-incubation): 5300 ± 490 nM | IC50 ([5]; substrate 5-(5-phenyl-2H-tetrazol-2-yl)pentan-1-amine (3), without pre-incubation): 9700 ± 780 nM | IC50 ([5]; substrate 8-(5-phenyl-2H-tetrazol-2-yl)octan-1-amine (6), without pre-incubation): 16000 ± 3400 nM | IC50 [5, 11]: 290 ± 70 nM | IC50 [5, 12]: 17000 ± 800 nM | IC50 ([3]; substrate benzylamine): 130 ± 30 nM | IC50 ([3]; substrate hexan-1-amine 4): 230 ± 40 nM | IC50 ([7]; substrate 4-(5-phenyl-2H-tetrazol-2-yl)butan-1-amine (2)): 2500 ± 300 nM | IC50 ([7]; substrate 5-(5-phenyl-2H-tetrazol-2-yl)pentan-1-amine (3)): 5400 ± 90 nM | IC50 ([7]; substrate 6-(5-phenyl-2H-tetrazol-2-yl)hexan-1-amine (4)): 11000 ± 1200 nM | IC50 ([7]; substrate 8-(5-phenyl-2H-tetrazol-2-yl)octan-1-amine (6)): 11000 ± 850 nM | IC50 ([7]; substrate benzylamine (7)): 120 ± 30 nM | IC50 ([8]; substrate 4): 290 nM | IC50 ([8]; substrate benzylamine): 110 nM

C#CCN(C)CCCOc1ccc(Cl)cc1Cl [clorgiline]
block of substrate transformation, bovine plasma [3]: neither of these compounds blocked the substrate transformation | block of substrate transformation, purified PAO [4]: neither of these compounds blocked the substrate transformation | reduction of MAO A activity [9]: more than 95%

NCCCCn1nnc(-c2ccccc2)n1 [Compound 2, 4-(5-Phenyl-2H-tetrazol-2-yl)butan-1-amine]
Conversion of substrate, Bovine plasma [1]: 66 ± 5.6% | Conversion of substrate, Purified PAO [2]: 55 ± 2.6%

NCCCCCCCCn1nnc(-c2ccccc2)n1 [Compound 6, 8-(5-Phenyl-2H-tetrazol-2-yl)octan-1-amine]
Conversion of substrate, Bovine plasma [1]: 26 ± 1.8% | Conversion of substrate, Purified PAO [2]: 25 ± 1.2%

NCCCCCn1nnc(-c2ccccc2)n1 [Compound 3, 5-(5-Phenyl-2H-tetrazol-2-yl)pentan-1-amine]
Conversion of substrate, Bovine plasma [1]: 51 ± 4.3% | Conversion of substrate, Purified PAO [2]: 45 ± 1.3%

NCCCCCCCn1nnc(-c2ccccc2)n1 [Compound 5, 7-(5-Phenyl-2H-tetrazol-2-yl)heptan-1-amine]
Conversion of substrate, Bovine plasma [1]: 23 ± 2.1% | Conversion of substrate, Purified PAO [2]: 30 ± 1.1%

NC(=Nc1ccccc1)NC(=O)c1nc(Cl)c(N)nc1N [phenamil]
block of substrate transformation, bovine plasma [3]: neither of these compounds blocked the substrate transformation | block of substrate transformation, purified PAO [4]: neither of these compounds blocked the substrate transformation | inhibition of DAO [10]: 43%
